For this experiment, the target named is T1, ERα W383S (Homo sapiens, UniProt P03372, W383S).
T1 construct: expressed in transfected cells; host or cells: HEK293
T1 sequence (P03372 1-595 W383S): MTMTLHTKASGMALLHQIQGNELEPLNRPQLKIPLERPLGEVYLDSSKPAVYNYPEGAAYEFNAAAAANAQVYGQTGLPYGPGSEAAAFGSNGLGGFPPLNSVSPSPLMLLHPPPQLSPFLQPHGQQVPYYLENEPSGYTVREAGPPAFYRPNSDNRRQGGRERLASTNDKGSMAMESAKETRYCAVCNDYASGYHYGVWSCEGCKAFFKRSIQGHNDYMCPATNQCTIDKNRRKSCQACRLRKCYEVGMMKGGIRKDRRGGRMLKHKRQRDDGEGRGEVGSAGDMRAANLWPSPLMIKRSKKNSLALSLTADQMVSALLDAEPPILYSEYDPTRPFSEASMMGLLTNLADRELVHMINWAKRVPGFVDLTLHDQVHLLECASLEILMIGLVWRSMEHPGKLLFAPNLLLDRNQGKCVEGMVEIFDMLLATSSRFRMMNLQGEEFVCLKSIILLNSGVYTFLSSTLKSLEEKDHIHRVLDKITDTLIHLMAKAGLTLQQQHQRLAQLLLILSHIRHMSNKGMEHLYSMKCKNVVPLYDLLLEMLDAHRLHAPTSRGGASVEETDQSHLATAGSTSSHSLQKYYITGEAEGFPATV
Put plainly: Estrogen Receptor luciferase assay in HEK293 cells transfected with ERα W383S. In kind it is cell-based. The settings on record: HEK293, Fig 6A. The source says:
To obtain a eukaryotic vector expressing only the ER-α nuclear receptor, a construct was designed by cloning a KpnI-BamHI fragment from plasmid pEGFP-C1-ERα containing the ERα coding sequence that includes a stop signal into the pEGFP-N3 plasmid (Clontech Laboratories, Palo Alto, CA) under the control of the CMV promoter. […] For mock transfections, pEGFP-N3 plasmid was digested with BglII and NotI and religated after polishing DNA ends to remove GFP coding sequence. Plasmid sequence was confirmed by automatic sequencing. Prior to transfection, cells were seeded in 48 well plates at density of 1.5 x 10^4 cells/well and incubated for 24 h to reach a cell confluence of 80–90%. […] MCF-7 cells, which endogenously express ERα receptor, were transfected with p3xERRE/ERE-luciferase plus the pRLTK Renilla luciferase control plasmid (95:5). Firefly and Renilla luciferase activities were measured using the Dual Luciferase Assay System (Promega, Madison, WI, USA), following a standard protocol using a Sirius L luminometer (Berthold Technologies, Bad Wildbad, Germany). Data were expressed as relative changes in luciferase activity and normalized to 100%.
Plasmids for the expression of the ERα W383A and ER-α W383S mutated receptors were constructed by the quick change site directed mutagenesis method using plasmid pEGFP-N-ERα as template.

Take `Fc1ccc(NC(=S)c2ccc(NC(=S)c3ccc(F)cc3)cc2)cc1` [Compound 18]: the “Activation of ER dependent transcription, ERα W383S vs wild type” value is “less active”.

The values above are taken from publication PMC4701221, “Novel Promising Estrogenic Receptor Modulators: Cytotoxic and Estrogenic Activity of Benzanilides and Dithiobenzanilides” (PLoS ONE, 2016).
